Reference: patent publication US20240398727A1, “(S)-5-(1-(3,5-BIS(TRIFLUOROMETHYL)PHENOXY)ETHYL)CYCLOHEXANE-1,3-DIONE (NU-9) IMPROVES THE HEALTH OF DISEASED UPPER MOTOR NEURONS” (Northwestern University, priority 2021, published 2024)

Legend:
[1] = test system: UMNs of hSOD1^G93A-UeGFP mice; test: Sholl analysis of arborization and branching, UMNs diseased by mSOD1 toxicity; type: cell-based, mouse; settings: 3 days in culture, data not shown
Protocol: (§1) UMN Cultures. P3 motor cortices isolated from WT-UeGFP, hSOD1^G93A-UeGFP, and prpTDP-43^A315T-UeGFP mice were dissected, dissociated, and cultured on glass coverslips (4×10^4 cells per 18 mm diameter coverslip, Fisherbrand) coated with poly-L-lysine (10 mg/mL, Sigma) as previously described (Ozdinler and Macklis 2006). Neurons were cultured in SFM [0.034 mg/L BSA, 1 mM L-glutamine, 25 U/mL penicillin, 0.025 mg/mL streptomycin, 35 mM glucose, and 0.5% B27 in Neurobasal-A medium (Life Technologies)] in a humidified tissue culture incubator in the presence of 5% CO2 at 37° C. […] Cultures were fixed after 3 days in vitro (DIV).
(§2) UMNs were quantitatively analyzed for differences in neurite length and arborization complexity. Images taken with a 20× objective on the epifluorescent microscope (Nikon) were analyzed using the Neurite Tracer plugin from FIJI (NIH), which enables semi-autonomous tracing to measure the length of the axon. The aggregation of the neurite tracings centered at the soma generates a profile available for Sholl analysis.

[2] = test system: UMNs of hSOD1^G93A-UeGFP mice; test: Axon outgrowth of UMNs diseased by mSOD1 toxicity in dissociated motor cortex culture; type: cell-based, mouse; settings: 3 days in vitro; for average length of UMN axons: SFM control 227.62±19.63 μm, WT 321.41±17.54 μm
Text: (§3) Mice. All animal procedures were approved by the Northwestern University Animal Care and Use committee and comply with the standards of the National Institutes of Health. All mice were on C57BL/6 background. Transgenic hemizygous males expressing a high copy number of the human SOD1 gene with a G93A mutation (B6SJL-Tg (SOD1*G93A)1Gur/J; The Jackson Laboratory) were bred to hemizygous UCHL1-eGFP females to generate hSOD1^G93A-UeGFP and WT-UeGFP (control) mice. UCHL1-eGFP mice were generated in the Ozdinler Lab; they are reporter lines for UMNs (Yasvoina, Genc et al. 2013), and are now available at Jackson Laboratory (stock no. 022476). Hemizygous UCHL1-eGFP females were bred to hemizygous prpTDP-43^A315T mice (procured from Jackson Laboratory, stock no. 010700) to generate prpTDP-43^A315T-UeGFP mice. prpTDP-43^A315T mice were supplied with gel diet (DietGel 76A, ClearH2O, ME, USA) to eliminate gastrointestinal (GI) complications. Transgenic mice were identified by PCR amplification of DNA extracted from their tail, as previously described (Gurney, Pu et al. 1994, Wegorzewska, Bell et al. 2009, Yasvoina, Genc et al. 2013, Gautam, Jara et al. 2019). Mice with different genotypes are abbreviated in the figures as follows: WT-UeGFP (control) mice=G mice; hSOD1^G93A-UeGFP mice=GS mice; prpTDP-43^A315T-UeGFP mice=GTDP mice.
(§4) Compound preparation and delivery. NU-9 was prepared as 100 μM stock in dimethylsulfoxide (DMSO) and added to serum free medium (SFM) at a final concentration of 400 nM (4 μl per 1 ml SFM). […] Edaravone (Sigma-Aldrich) was prepared as 1 mM stock in DMSO and added at a final concentration of 1 μM in SFM (1 μl per 1 ml SFM). Amylyx AMX-0035 compound was a combination of 1 mM of 4-Phenylbutyric acid (4-PBA, Sigma Aldrich)+100 μM Tauroursodeoxycholic Acid, Sodium Salt (TUDCA, Millipore Sigma) added into SFM (4-PBA was prepared as a 21.5 mM stock in water and added at 46.5 μl per 1 ml SFM, TUDCA was prepared as 20 mM stock in water, and added at 5 μl per 1 ml SFM).
(§5) UMN Cultures. P3 motor cortices isolated from WT-UeGFP, hSOD1^G93A-UeGFP, and prpTDP-43^A315T-UeGFP mice were dissected, dissociated, and cultured on glass coverslips (4×10^4 cells per 18 mm diameter coverslip, Fisherbrand) coated with poly-L-lysine (10 mg/mL, Sigma) as previously described (Ozdinler and Macklis 2006). […]
as §2, with “The aggregation of the neurite tracings centered at the soma generates a profile available for Sholl analysis.” left out

[3] = test system: UMNs from prpTDP-43^A315T-UeGFP mice; type: cell-based; settings: prpTDP-43^A315T-UeGFP UMNs, 3 days in vitro; for average length of the axons of UMNs: SFM control 199.52±21.15 μm, WT 321.41±17.54 μm
Text: as §3, §4, §5
as §2, with “The aggregation of the neurite tracings centered at the soma generates a profile available for Sholl analysis.” left out

[4] = Plasma, brain and CNS concentrations after repeated oral dosing; settings: mice, 100 mg/kg/day via daily gavage
[5] = male, BALB/c, mouse, in vivo, po
male BALB/c mice = settings: mouse, in vivo, po, 100 mg/kg/day
Protocol: Repeated dose toxicity study was performed at Laboratory Animal House (LAH), Toxicology, Sai Life Science Ltd., Chrysalis Enclave, Phase II, Hinjewadi, Pune-411 057, Maharashtra, India.

in vivo = settings: BALB/c, mouse, 100 mg/kg/day
[6] = test system: UMNs from prpTDP-43^A315T-UeGFP mice; test: Sholl analysis of arborization and branching, UMNs with TDP-43 pathology; type: cell-based, mouse; settings: prpTDP-43^A315T-UeGFP UMNs; data not shown
Protocol: as §1, §2
Statistical analysis. All analyses were performed using Prism software (GraphPad Software). The D'Agostino and Pearson normality test was performed on all datasets. Statistical differences between more than two groups were determined by one-way ANOVA followed by the Tukey's post-hoc multiple-comparison test. […]

[7] = literature value; cited from earlier work
[8] = test system: misfolded SOD1 (mSOD1) mouse model; settings: literature (Snow 2003, Scott 2008); cited from earlier work
[9] = NU-9 400 nM, riluzole 500 nM, edaravone 1 μM
[10] = riluzole 500 nM, edaravone 1 μM

Row | SMILES | UMN arborization (Sholl measurements) [1] | percent of UMNs with an axon within the range of 300-399 μm ([2]; NU-9 400 nM) | average length of UMN axons [2, 9] [μm] | percentage of UMNs with axons longer than 300 μm ([3]; NU-9 400 nM, vehicle 26%) [%] | average length of the axons of UMNs [3, 9] [μm] | dose (concentration) detected in CNS [4] [nM] | time till which plasma concentrations were quantifiable [5] | time up to which brain concentrations were quantifiable [5] | mortality (male BALB/c mice) | concentration at 7 day (in vivo; CNS, oral) [nM] | Tmax (in vivo; male, plasma, po) [min] | neuronal arborization and branching (Sholl analyses) [6] | overall axon outgrowth (distribution of longest axons) [2, 10] | concentration reported to be present in the CNS after the optimum dose used in clinical trials [7] [nM] | percentage of UMNs with axons in the range of 200-399 μm [3, 10] [%] | longevity of the mSOD1 mouse model [8]
1 | C[C@H](Oc1cc(C(F)(F)F)cc(C(F)(F)F)c1)C1CC(=O)CC(=O)C1 [NU-9, (S)-5-(1-(3,5-bis(trifluoromethyl)phenoxy)ethyl)cyclohexane-1,3-dione] | more complex and arborized UMNs | about 44.4% | 346.76±12.32 | 88 | 397.73±14.09 | 400 | up to 24 h | up to 24 h | did not result in mortality | 400 | 30 | enhanced neuronal arborization and branching |  |  |  | 
2 | CC1=NN(c2ccccc2)C(=O)C1 [edaravone, 2,4-Dihydro-5-methyl-2-phenyl-3H-pyrazol-3-one, reference compound] | improved UMN arborization, but to a lesser extent |  | 289.58±22.71 |  | 282.57±32.39 |  |  |  |  |  |  |  | improved overall axon outgrowth | 1000 | 62 | 
3 | Nc1nc2ccc(OC(F)(F)F)cc2s1 [riluzole, 2-Amino-6-(trifluoromethoxy)benzothiazole] |  |  |  |  |  |  |  |  |  |  |  |  |  |  |  | failed to improve the longevity
